Among the data in paper PMC12292302, “Revealing the Improving Effect and Molecular Mechanism of L-Clausenamide in Combating the Acute Lung Injury: Insights from Network Pharmacology, Molecular Docking, and In Vitro Validation” (Biology, 2025) are Kd values, retold here.

A word on the Kd: it is the free concentration of one partner at which half of the binding sites on the other are occupied at equilibrium, for simple one-to-one binding. A lower Kd goes with tighter binding.

For the assay, the target named is AKT1 (RAC-alpha serine/threonine-protein kinase) (Homo sapiens, UniProt P31749). The assay can be described thus: SPR (Biacore 8K+, CM7 chip, purchased AKT1 protein MCE HY-P74421). It counts as binding.
Sequence of AKT1 (RAC-alpha serine/threonine-protein kinase) (P31749 whole entry): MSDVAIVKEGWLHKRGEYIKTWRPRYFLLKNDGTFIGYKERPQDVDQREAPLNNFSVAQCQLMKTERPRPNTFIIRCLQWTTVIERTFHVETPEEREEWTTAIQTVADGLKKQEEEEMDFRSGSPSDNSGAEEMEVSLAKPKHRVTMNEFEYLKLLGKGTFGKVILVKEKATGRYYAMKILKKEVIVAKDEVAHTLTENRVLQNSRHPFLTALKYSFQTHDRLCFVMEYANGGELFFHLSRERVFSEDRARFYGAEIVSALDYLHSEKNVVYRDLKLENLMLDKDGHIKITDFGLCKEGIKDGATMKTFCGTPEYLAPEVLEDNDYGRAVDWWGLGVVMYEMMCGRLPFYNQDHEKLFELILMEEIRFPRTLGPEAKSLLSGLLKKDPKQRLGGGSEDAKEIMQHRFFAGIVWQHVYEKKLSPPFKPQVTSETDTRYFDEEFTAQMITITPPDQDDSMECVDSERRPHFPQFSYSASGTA

The molecule `CN1C(=O)[C@@H](O)[C@H](c2ccccc2)[C@@H]1[C@@H](O)c1ccccc1` [L-Clausenamide] yielded a Kd of 10.3 µM.
